Experimental data: US20100047371A1, “COMPOSITIONS AND METHODS FOR ORAL CANCER CHEMOPREVENTION USING BERRY PREPARATIONS AND EXTRACTS” (priority 2006, published 2010)

Experiments:
[1] = tested on: Human Oral Mucosa Explant Tissues; assay: Effect of final gel pH on anthocyanin uptake into human oral mucosa explant tissues; assay type: in vitro ADME; settings: 10% w/w FBR gel; for Anthocyanin uptake, Gel pH 3.5, Avg. ± SEM / Anthocyanin uptake, Gel pH 6.5, Avg. ± SEM: average of eleven explant samples; for % change 3.5 to 6.5, Avg. ± SEM: average of explant samples
Protocol: Anthocyanin content in sera, saliva, and tissue explants was evaluated by an HPLC-MS assay. The respective samples (sera, saliva or tissue homogenates) were dissolved in 90% solvent A (water plus 1% formic acid) and 10% solvent B (acetonitrile plus 1% formic acid) and then separated on a Symmetry C18 reversed-phase column and analyzed using a Waters 2695 gradient HPLC separation module equipped with a 996 photodiode-array (PDA) UV/visible absorbance detector (Milford, Mass.). The solvent system consisted of a step gradient from 90% A to 50% B over 15 minutes, and the absorption spectra were recorded from 200-800 nm with the inline PDA detector. Mass spectrometry was conducted on a quadrupole ion tunnel mass spectrometer equipped with a Z-spray ESI source. Explant protein levels were determined by the Lowry method, using bovine γ-globulin as the standard protein [Lippman et al., 1993]. Tissue explants, specifically human oral mucosal explants, were used to determine the in vitro effects of FBR content and pH on anthocyanin uptake. Human oral tissues for the tissue explant studies were obtained from consenting volunteers who were undergoing elective oral surgery procedures. To confirm “no pathologic diagnosis”, a portion of each of these tissues was submitted for light microscopic evaluation. […] Tissues for explant experiments were immediately placed in an artificial saliva transport medium, which also served as the incubation medium for the gel absorption studies. The composition of the artificial saliva used for tissue transport and incubation was (final concentrations): sodium carboxymethylcellulose (0.5%), sorbitol (165 mM), NaCl (14 mM), KCl (16 mM), calcium chloride dehydrate (1.0 mM), MgCl2 (0.63 mM), Trizma hydrochloride (2.0 mM). Tissues from eight donors were used for preliminary studies to compare the penetration of anthocyanins from the 5% berry gel and the 10% FBR gel, both at a final pH of 6.5. In order to account for heterogeneity among human donors, tissue samples were hemisected. One tissue portion treated with 5% and the other with 10% FBR gels. One gram of gel (containing either 5% or 10% w/w FBR) was placed on the epithelial surface of the explant, followed by gently rubbing of the site for 30 seconds to facilitate uptake. Explants were then placed into artificial saliva, incubated for 30 minutes (37° C., 5% CO2), and then frozen at −80° C. until HPLC-mass spectroscopy analyses as previously reported [Rodrigo et al., in press]. Tissue preparation for HPLC analyses consisted of homogenization of the entire oral mucosal specimen, removal of an aliquot for sample protein level determination, followed by the addition of collagenase type II (0.1 mg/mL, GIBCO, Grand Island, N.Y.) and 1% formic acid. Samples were then placed on a Sep Pack (Millipore, Billerica, Mass.), eluted with methanol, and dried under argon gas. Additional oral mucosal explant studies were conducted to compare the effect of FBR gel pH on absorption into oral mucosal explants. Tissues from eleven donors were used for these studies, and handling was as described above with the exception that all gels contained 10% w/w FBR and were formulated at a final pH of 3.5 or 6.5. […] Large differences (up to 15-fold) in detectable anthocyanin levels were found in the gel treated donor tissues; findings that likely reflect the extensive heterogeneity within human tissues that affects tissue penetrative abilities.

[2] = Human pharmacokinetic study: anthocyanins in saliva and peripheral blood after topical gel application; assay type: in vivo; settings: for Anthocyanin concentration in saliva / Anthocyanin concentration in peripheral blood: 1.0 g 5% FBR Gel, pH 6.5 topical to floor of mouth; for Anthocyanin concentration in saliva: saliva collected 2-5 min after application; for Anthocyanin concentration in peripheral blood: blood drawn five minutes after application
Protocol: Anthocyanin content in sera, saliva, and tissue explants was evaluated by an HPLC-MS assay. The respective samples (sera, saliva or tissue homogenates) were dissolved in 90% solvent A (water plus 1% formic acid) and 10% solvent B (acetonitrile plus 1% formic acid) and then separated on a Symmetry C18 reversed-phase column and analyzed using a Waters 2695 gradient HPLC separation module equipped with a 996 photodiode-array (PDA) UV/visible absorbance detector (Milford, Mass.). The solvent system consisted of a step gradient from 90% A to 50% B over 15 minutes, and the absorption spectra were recorded from 200-800 nm with the inline PDA detector. Mass spectrometry was conducted on a quadrupole ion tunnel mass spectrometer equipped with a Z-spray ESI source. Explant protein levels were determined by the Lowry method, using bovine γ-globulin as the standard protein [Lippman et al., 1993].
Next, evaluation of anthocyanin uptake into human oral mucosa from FBR gels prepared as described in Example 1 was undertaken. For in-vivo studies, participation of human subjects was conducted in accordance with an IRB approved protocol. […] For the phamacokinetic analyses, nine consenting adult volunteers dried the anterior floor of their mouth, placed 1.0 g of 5% berry gel (pH 6.5), and massaged the gel in place for 30 seconds to facilitate uptake. Two minutes after gel application saliva was collected for the next three minutes. Peripheral blood was drawn five minutes after gel application. Following clotting, sera samples were collected, and both the sera and saliva samples were stored at −80° C. until LC-MS analysis as described below.
All nine participants had detectable anthocyanin levels of three anthocyanins (cyanidin 3-rutinoside, cyanidin 3-xylosylrutinoside, cyanidin 3-glucoside) in either their saliva or blood, and 4 donors had detectable levels of two anthocyanins (cyanidin 3-rutinoside and cyanidin 3-xylosylrutinoside) in their peripheral blood. Saliva from eight of the nine donors contained detectable levels of either two (cyanidin 3-rutinoside and cyanidin 3-xylosylrutinoside-4 donors) or three anthocyanins (4 donors).

OC[C@H]1O[C@@H](Oc2cc3c(O)cc(O)cc3[o+]c2-c2ccc(O)c(O)c2)[C@H](O[C@@H]2OC[C@@H](O)[C@H](O)[C@H]2O)[C@@H](O)[C@@H]1O.[Cl-] [Cyanidin 3-sambubioside, cyanidin 3-sambubioside]
Anthocyanin uptake, Gel pH 3.5, Avg. ± SEM [1]: 1.9 pmol per mg tissue
Anthocyanin uptake, Gel pH 6.5, Avg. ± SEM [1]: 5.3 pmol per mg tissue
% change 3.5 to 6.5, Avg. ± SEM [1]: 89.0%
% change 3.5 to 6.5 ([1]; explant sample 001): 319.4%
Anthocyanin uptake, Gel pH 3.5 ([1]; explant sample 001): 7.4 pmol per mg tissue
Anthocyanin uptake, Gel pH 6.5 ([1]; explant sample 001): 30.9 pmol per mg tissue
% change 3.5 to 6.5 ([1]; explant sample 002): 427.3%
Anthocyanin uptake, Gel pH 3.5 ([1]; explant sample 002): 0.6 pmol per mg tissue
Anthocyanin uptake, Gel pH 6.5 ([1]; explant sample 002): 2.9 pmol per mg tissue
% change 3.5 to 6.5 ([1]; explant sample 003): −19.7%
Anthocyanin uptake, Gel pH 3.5 ([1]; explant sample 003): 1.8 pmol per mg tissue
Anthocyanin uptake, Gel pH 6.5 ([1]; explant sample 003): 1.4 pmol per mg tissue
% change 3.5 to 6.5 ([1]; explant sample 004): −66.4%
Anthocyanin uptake, Gel pH 3.5 ([1]; explant sample 004): 1.3 pmol per mg tissue
Anthocyanin uptake, Gel pH 6.5 ([1]; explant sample 004): 0.4 pmol per mg tissue
% change 3.5 to 6.5 ([1]; explant sample 005): −61.8%
Anthocyanin uptake, Gel pH 3.5 ([1]; explant sample 005): 0.3 pmol per mg tissue
Anthocyanin uptake, Gel pH 6.5 ([1]; explant sample 005): 0.1 pmol per mg tissue
% change 3.5 to 6.5 ([1]; explant sample 006): 330.8%
Anthocyanin uptake, Gel pH 3.5 ([1]; explant sample 006): 2.3 pmol per mg tissue
Anthocyanin uptake, Gel pH 6.5 ([1]; explant sample 006): 10.1 pmol per mg tissue
% change 3.5 to 6.5 ([1]; explant sample 007): −14.6%
Anthocyanin uptake, Gel pH 3.5 ([1]; explant sample 007): 0.4 pmol per mg tissue
Anthocyanin uptake, Gel pH 6.5 ([1]; explant sample 007): 0.4 pmol per mg tissue
Anthocyanin uptake, Gel pH 3.5 ([1]; explant sample 008): 0.0 pmol per mg tissue
Anthocyanin uptake, Gel pH 6.5 ([1]; explant sample 008): 1.9 pmol per mg tissue
% change 3.5 to 6.5 ([1]; explant sample 009): 256.9%
Anthocyanin uptake, Gel pH 3.5 ([1]; explant sample 009): 2.9 pmol per mg tissue
Anthocyanin uptake, Gel pH 6.5 ([1]; explant sample 009): 10.3 pmol per mg tissue
% change 3.5 to 6.5 ([1]; explant sample 010): −92.9%
Anthocyanin uptake, Gel pH 3.5 ([1]; explant sample 010): 2.0 pmol per mg tissue
Anthocyanin uptake, Gel pH 6.5 ([1]; explant sample 010): 0.1 pmol per mg tissue
% change 3.5 to 6.5 ([1]; explant sample 011): −100%
Anthocyanin uptake, Gel pH 3.5 ([1]; explant sample 011): 2.1 pmol per mg tissue
Anthocyanin uptake, Gel pH 6.5 ([1]; explant sample 011): 0.0 pmol per mg tissue

CC1OC(OCC2OC(Oc3cc4c(O)cc(O)cc4[o+]c3-c3ccc(O)c(O)c3)C(OC3OCC(O)C(O)C3O)C(O)C2O)C(O)C(O)C1O (centres unmarked) [cyanidin 3-xylosylrutinoside]
Anthocyanin uptake, Gel pH 3.5, Avg. ± SEM [1]: 5.4 pmol per mg tissue
Anthocyanin uptake, Gel pH 6.5, Avg. ± SEM [1]: 17.4 pmol per mg tissue
% change 3.5 to 6.5, Avg. ± SEM [1]: 140.6%
% change 3.5 to 6.5 ([1]; explant sample 001): 522.5%
Anthocyanin uptake, Gel pH 3.5 ([1]; explant sample 001): 14.2 pmol per mg tissue
Anthocyanin uptake, Gel pH 6.5 ([1]; explant sample 001): 88.1 pmol per mg tissue
% change 3.5 to 6.5 ([1]; explant sample 002): 747.1%
Anthocyanin uptake, Gel pH 3.5 ([1]; explant sample 002): 1.2 pmol per mg tissue
Anthocyanin uptake, Gel pH 6.5 ([1]; explant sample 002): 10.3 pmol per mg tissue
% change 3.5 to 6.5 ([1]; explant sample 003): 12.1%
Anthocyanin uptake, Gel pH 3.5 ([1]; explant sample 003): 5.7 pmol per mg tissue
Anthocyanin uptake, Gel pH 6.5 ([1]; explant sample 003): 6.4 pmol per mg tissue
% change 3.5 to 6.5 ([1]; explant sample 004): −65.1%
Anthocyanin uptake, Gel pH 3.5 ([1]; explant sample 004): 3.6 pmol per mg tissue
Anthocyanin uptake, Gel pH 6.5 ([1]; explant sample 004): 1.3 pmol per mg tissue
% change 3.5 to 6.5 ([1]; explant sample 005): −45.9%
Anthocyanin uptake, Gel pH 3.5 ([1]; explant sample 005): 0.9 pmol per mg tissue
Anthocyanin uptake, Gel pH 6.5 ([1]; explant sample 005): 0.5 pmol per mg tissue
% change 3.5 to 6.5 ([1]; explant sample 006): 258.5%
Anthocyanin uptake, Gel pH 3.5 ([1]; explant sample 006): 9.9 pmol per mg tissue
Anthocyanin uptake, Gel pH 6.5 ([1]; explant sample 006): 35.5 pmol per mg tissue
% change 3.5 to 6.5 ([1]; explant sample 007): −9.4%
Anthocyanin uptake, Gel pH 3.5 ([1]; explant sample 007): 1.1 pmol per mg tissue
Anthocyanin uptake, Gel pH 6.5 ([1]; explant sample 007): 1.0 pmol per mg tissue
Anthocyanin uptake, Gel pH 3.5 ([1]; explant sample 008): 0.0 pmol per mg tissue
Anthocyanin uptake, Gel pH 6.5 ([1]; explant sample 008): 6.3 pmol per mg tissue
% change 3.5 to 6.5 ([1]; explant sample 009): 318.4%
Anthocyanin uptake, Gel pH 3.5 ([1]; explant sample 009): 9.9 pmol per mg tissue
Anthocyanin uptake, Gel pH 6.5 ([1]; explant sample 009): 41.3 pmol per mg tissue
% change 3.5 to 6.5 ([1]; explant sample 010): −91.9%
Anthocyanin uptake, Gel pH 3.5 ([1]; explant sample 010): 6.7 pmol per mg tissue
Anthocyanin uptake, Gel pH 6.5 ([1]; explant sample 010): 0.5 pmol per mg tissue
% change 3.5 to 6.5 ([1]; explant sample 011): −100%
Anthocyanin uptake, Gel pH 3.5 ([1]; explant sample 011): 6.0 pmol per mg tissue
Anthocyanin uptake, Gel pH 6.5 ([1]; explant sample 011): 0.00 pmol per mg tissue
number of donors with detectable levels in peripheral blood ([2]; of nine participants, 5% berry gel (pH 6.5), five minutes after application): 4 donors
Anthocyanin concentration in saliva ([2]; patient 101): 2.0 pmol/mL
Anthocyanin concentration in saliva ([2]; patient 102): 0.5 pmol/mL
Anthocyanin concentration in peripheral blood ([2]; patient 103): 0.6 pmol/mL
Anthocyanin concentration in saliva ([2]; patient 104): 1.5 pmol/mL
Anthocyanin concentration in peripheral blood ([2]; patient 105): 1.1 pmol/mL
Anthocyanin concentration in saliva ([2]; patient 105): 2.3 pmol/mL
Anthocyanin concentration in peripheral blood ([2]; patient 106): 0.8 pmol/mL
Anthocyanin concentration in saliva ([2]; patient 106): 1.9 pmol/mL
Anthocyanin concentration in peripheral blood ([2]; patient 107): 1.3 pmol/mL
Anthocyanin concentration in saliva ([2]; patient 107): 1.7 pmol/mL
Anthocyanin concentration in saliva ([2]; patient 108): 1.0 pmol/mL
Anthocyanin concentration in saliva ([2]; patient 109): 1.2 pmol/mL
